Assay results reported in article PMC4747102 (European journal of medicinal chemistry, 2015).

Experiments:
[1] = tested on: MDA-MB-231 (triple negative breast cancer) cells; format: cell-based, human
[2] = tested on: MCF-7 (ER+ breast cancer) cells; assay: cells; format: cell-based, human

CC(C)CC(c1cc(O)c2c(c1O)C(=O)c1ccccc1C2=O)N(CCCl)CCCl (stereo not shown) [5f, 2-(1-(Bis(2-chloroethyl)amino)-3-methylbutyl)-1,4-dihydroxyanthracene-9,10-dione]
fold stronger than compound 5b [1]: approximately 70 fold

O=C1c2ccccc2C(=O)c2c(O)c(C(c3ccccc3F)N(CCCl)CCCl)cc(O)c21 (stereo not shown) [5i, 2-((Bis(2-chloroethyl)amino) (2-fluorophenyl)methyl)-1,4-dihydroxyanthracene-9,10-dione]
fold increase in inhibitory activity compared to chlorambucil [1]: ca. 900 fold

O=C1c2ccccc2C(=O)c2c(O)c(C(c3ccc(F)cc3)N(CCCl)CCCl)cc(O)c21 (stereo not shown) [5k, 2-((Bis(2-chloroethyl)amino)(4-fluorophenyl)methyl)-1,4-dihydroxyanthracene-9,10-dione]
times more potent than chlorambucil [2]: over 100 times

COc1cccc2c1C(=O)c1c(O)c3c(c(O)c1C2=O)C[C@@](O)(C(=O)CO)C[C@@H]3O[C@H]1C[C@H](N)[C@H](O)[C@H](C)O1 [Doxorubicin, reference compound]
IC50 ([2]; Homo sapiens, MCF7, 120 h, read-out: IC50 MCF-7): 0.294 nM
